This note sets out measurements from PMC9939733 (The Journal of Biological Chemistry, 2023).

Common to all, as to format: biochemical
Assay [1] addresses T1, R140Q IDH2 (Homo sapiens, UniProt P48735, R140Q).
T1 construct: made in house; host or cells: Sf21 insect cells (cell pellets prepared at Evotec)
T1 sequence (P48735 40-452 R140Q): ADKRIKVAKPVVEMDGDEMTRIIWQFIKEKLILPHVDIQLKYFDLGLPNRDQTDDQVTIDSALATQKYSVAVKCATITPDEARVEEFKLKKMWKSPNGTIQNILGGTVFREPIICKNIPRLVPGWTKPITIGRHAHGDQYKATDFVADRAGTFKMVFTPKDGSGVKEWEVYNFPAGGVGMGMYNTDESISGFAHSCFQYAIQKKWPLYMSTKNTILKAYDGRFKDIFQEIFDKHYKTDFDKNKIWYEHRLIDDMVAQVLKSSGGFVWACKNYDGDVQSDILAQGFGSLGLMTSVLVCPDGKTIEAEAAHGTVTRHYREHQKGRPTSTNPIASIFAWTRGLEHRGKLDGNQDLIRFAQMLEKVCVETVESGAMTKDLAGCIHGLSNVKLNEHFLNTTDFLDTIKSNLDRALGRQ
As to the kind of experiment: Absorbance assay (NADPH consumption), substrate turnover in the absence of 2OG. As to the method: (§1) Compounds were dispensed using a CyBio SDW-CW CyBi-Well Simultaneous Pipettor and assay started using a ThermoFisher Multidrop Combi reagent dispenser.
(§2) Reactions were performed as technical quadruplicates.

The target in assay [2] is T2, R172K IDH2 (Homo sapiens, UniProt P48735, R172K).
T2 construct: made in house; host or cells: Sf21 insect cells (cell pellets prepared at Evotec)
T2 sequence (P48735 40-452 R172K): T1 sequence (P48735 40-452 R140Q) with Q101R, R133K
The description is as above. As to the method:
as §1, §2

Assay [3] has as its target T1, R140Q IDH2. The experiment in a line: Absorbance assay, variant activity in the presence of equimolar 2OG (inhibition screen). As to the method: as §1, §2
The target of assay [4] is T2, R172K IDH2. The description is as above. As to the method:
as §1, §2

In assay [5] the target is T3, WT IDH1 (Homo sapiens, UniProt O75874).
T3 construct: made in house; host or cells: Escherichia coli BL21(DE3) pLyS
T3 sequence (O75874 whole entry): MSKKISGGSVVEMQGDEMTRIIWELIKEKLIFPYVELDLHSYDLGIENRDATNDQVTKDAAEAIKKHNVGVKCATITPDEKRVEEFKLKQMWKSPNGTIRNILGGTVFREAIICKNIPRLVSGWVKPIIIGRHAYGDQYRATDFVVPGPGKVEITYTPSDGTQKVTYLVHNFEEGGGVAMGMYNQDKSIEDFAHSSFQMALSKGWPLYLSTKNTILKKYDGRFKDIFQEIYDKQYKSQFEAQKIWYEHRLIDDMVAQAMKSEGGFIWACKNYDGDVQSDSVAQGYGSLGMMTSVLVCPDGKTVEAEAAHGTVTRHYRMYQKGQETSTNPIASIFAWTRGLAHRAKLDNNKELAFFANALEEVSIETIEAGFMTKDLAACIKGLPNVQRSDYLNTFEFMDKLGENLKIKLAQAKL
As to the kind of experiment: Absorbance assay, WT activity in the presence of equimolar DL-isocitrate (inhibition). Conditions: […] isocitrate and […] test compound, 75 μM NADP+, 2.0 nM WT IDH1. As to the method: as §1, §2

Assay [6] concerns the target T4, R132H IDH1 (Homo sapiens, UniProt O75874, R132H). The experiment in a line: Absorbance assay (NADPH consumption), substrate turnover in the absence of 2OG. Also on record: made in house; host or cells: Escherichia coli BL21(DE3) pLyS. As to the method: as §1, §2
Assay [7] concerns the target T4, R132H IDH1. The experiment in a line: Absorbance assay, variant activity in the presence of equimolar 2OG (inhibition screen). Also on record: made in house; host or cells: Escherichia coli BL21(DE3) pLyS. As to the method:
as §1, §2

The target of assay [8] is T5, WT IDH2 (Homo sapiens, UniProt P48735).
T5 construct: made in house; host or cells: Sf21 insect cells (cell pellets prepared at Evotec)
T5 sequence (P48735 40-452): T1 sequence (P48735 40-452 R140Q) with Q101R
The experiment in a line: Absorbance assay, WT activity in the presence of equimolar DL-isocitrate (inhibition). Conditions: […] isocitrate and […] test compound, 75 μM NADP+, 2.0 nM WT IDH2. As to the method: as §1, §2

For assay [9], the target named is T3, WT IDH1. The experiment in a line: Absorbance assay, substrate activity in the absence of DL-isocitrate. Particulars: no DL-isocitrate; […] test compound, 75 μM NADP+, 2.0 nM WT IDH1; compared to DL-isocitrate. As to the method:
as §1, §2

For assay [10], the target named is T5, WT IDH2. The description is as above. Conditions: no DL-isocitrate; […] test compound, 75 μM NADP+, 2.0 nM WT IDH2; compared to DL-isocitrate. As to the method: as §1, §2
[11] abbreviates: no 2OG, 1.0 mM test compound, 0.03 μM R172K IDH2, 50 μM NADPH, 2OG = 100.
Setting [12] is: 6.0 mM 2OG and 6.0 mM test compound, 0.03 μM R140Q IDH2, 50 μM NADPH.
Where [13] appears, read: 1.0 mM 2OG and 1.0 mM test compound, 0.03 μM R172K IDH2, 50 μM NADPH.
Setting [14] is: no 2OG, […] test compound, 0.03 μM R132H IDH1, 50 μM NADPH, 2OG = 100.
[15] abbreviates: […] 2OG and […] test compound, 0.03 μM R132H IDH1, 50 μM NADPH.

Where a chain is given by its changes, count along the chain named.

T4 sequence (O75874 whole entry R132H): as the sequence (O75874 whole entry) above, with R132H counted along it

Consider `O=C(O)CCCC(=O)C(=O)O` [2-oxoadipic acid], for which the “activity [%] (%-substrate conversion after 20 min incubation)” value (shortened to “activity [%]”) on R140Q IDH2 [1] (no 2OG, 6.0 mM test compound, 0.03 μM R140Q IDH2, 50 μM NADPH, 2OG = 100) is given as less than 10%; on R172K IDH2 [2] (setting [11]), less than 10%; on R140Q IDH2 [3] (setting [12]), 94 ± 8%; at R172K IDH2 [4] (setting [13]) it was 96 ± 18%; on WT IDH1 [5], 108 ± 8%; at R132H IDH1 [6] (setting [14]) it was less than 10%. For the same molecule, the “activity [%]” value on R132H IDH1 [7] (setting [15]) is 115 ± 8%.
On to `O=C(O)C(=O)Cc1c[nH]c2ccccc12` [indole-3-pyruvic acid], for which the “activity [%]” value on R172K IDH2 [2] (setting [11]) is listed as less than 10%; at R172K IDH2 [4] (setting [13]), 87 ± 10%; on WT IDH1 [5], 88 ± 2%; at WT IDH2 [8], 89 ± 1%; at R132H IDH1 [6] (setting [14]), less than 10%; on R132H IDH1 [7] (setting [15]), 81 ± 6%.
As to `O=C(O)CC(C(=O)O)C(O)C(=O)O` (racemic) [DL-isocitric acid], the “activity [%]” value at R140Q IDH2 [1] is recorded as less than 10%; at R172K IDH2 [2], less than 10%; on R140Q IDH2 [3], 64 ± 3%; on R172K IDH2 [4], 71 ± 5%; at R132H IDH1 [6] it was less than 10%; on R132H IDH1 [7] it was 78 ± 5%.
In the case of `O=C(O)C(=O)CC(Cc1ccccc1)C(=O)O` (racemic) [compound 19], the “activity [%]” value at R140Q IDH2 [3] (setting [12]) is reported as 106 ± 4%; on R172K IDH2 [4] (setting [13]) it was 102 ± 5%; on WT IDH1 [5], 98±2%; at WT IDH2 [8], 97±3%; on WT IDH1 [9], less than 10%; on WT IDH2 [10], less than 10%. In addition, the “activity [%]” value on R132H IDH1 [7] (setting [15]) was 116 ± 17%.
On to `O=C(O)C(=O)C1CC1C(=O)O` (mixture of isomers) [compound 21], for which the “activity [%]” value at R140Q IDH2 [3] (setting [12]) is recorded as 394 ± 40%; on R172K IDH2 [4] (setting [13]), 110 ± 4%; at WT IDH1 [5], 96±1%; on WT IDH2 [8], 95±2%; at WT IDH1 [9] it was less than 10%; on WT IDH2 [10], less than 10%. In addition, the “activity [%]” value at R132H IDH1 [7] (setting [15]) is reported as 132 ± 3%.
Consider `CCC(CC(=O)C(=O)O)C(=O)O` (racemic) [compound 14], for which the “activity [%]” value on R140Q IDH2 [3] (setting [12]) is recorded as 117 ± 9%; on R172K IDH2 [4] (setting [13]), 112 ± 13%; at WT IDH1 [5], 94±1%; at WT IDH2 [8] it was 98±3%; at WT IDH1 [9], less than 10%; at WT IDH2 [10], less than 10%. For the same molecule, the “activity [%]” value at R132H IDH1 [7] (setting [15]) is given as 103 ± 2%.
Take `O=C(O)CC(CCCc1ccccc1)C(=O)C(=O)O` (racemic) [compound 6]: the “activity [%]” value at R140Q IDH2 [3] (setting [12]) is 239 ± 37%; on R172K IDH2 [4] (setting [13]), 93 ± 1%; on WT IDH1 [5], 96±1%; on WT IDH2 [8], 99±1%; at WT IDH1 [9], less than 10%; on WT IDH2 [10], less than 10%. For the same molecule, at R132H IDH1 [7] (setting [15]), the “activity [%]” value was determined as 182 ± 10%.
